Laboratory results taken from ChEMBL document CHEMBL3638977, “Heteroaryl sodium channel inhibitors” (2015).

biological target: Sodium channel protein type 9 subunit alpha (Homo sapiens, UniProt Q15858); assay: In Vitro Assay: 293 cells stably transfected with either Nav 1.7 or with Nav 1.5 were recorded in population patch-clamp mode with the IonWorks® Quattro automated electrophysiology system in accordance with the manufacturer's specifications (Molecular Devices, LLC, Sunnyvale, Calif.). Sodium channel currents were measured in response to a train of depolarizations that induced successively greater inactivation.Cells were held at −110 mV for three seconds (Nav 1.7) or half a second (Nav 1.5) from a holding voltage of −15 mV, then put through a series of 26 pulses of 150 msec duration to −20 mV at a frequency of 5 Hz. Cells were then left unclamped for a period of 3 to 8 minutes while a single concentration of test compound was added. Cells were then reclamped and put through the same voltage protocol. Current at the end of the 26th pulse to −20 mV was subtracted from the peak current evoked by the 26th pulse to −20 mV to correct for leak current.; assay type: cell-based
Sequence (Q15858 whole entry): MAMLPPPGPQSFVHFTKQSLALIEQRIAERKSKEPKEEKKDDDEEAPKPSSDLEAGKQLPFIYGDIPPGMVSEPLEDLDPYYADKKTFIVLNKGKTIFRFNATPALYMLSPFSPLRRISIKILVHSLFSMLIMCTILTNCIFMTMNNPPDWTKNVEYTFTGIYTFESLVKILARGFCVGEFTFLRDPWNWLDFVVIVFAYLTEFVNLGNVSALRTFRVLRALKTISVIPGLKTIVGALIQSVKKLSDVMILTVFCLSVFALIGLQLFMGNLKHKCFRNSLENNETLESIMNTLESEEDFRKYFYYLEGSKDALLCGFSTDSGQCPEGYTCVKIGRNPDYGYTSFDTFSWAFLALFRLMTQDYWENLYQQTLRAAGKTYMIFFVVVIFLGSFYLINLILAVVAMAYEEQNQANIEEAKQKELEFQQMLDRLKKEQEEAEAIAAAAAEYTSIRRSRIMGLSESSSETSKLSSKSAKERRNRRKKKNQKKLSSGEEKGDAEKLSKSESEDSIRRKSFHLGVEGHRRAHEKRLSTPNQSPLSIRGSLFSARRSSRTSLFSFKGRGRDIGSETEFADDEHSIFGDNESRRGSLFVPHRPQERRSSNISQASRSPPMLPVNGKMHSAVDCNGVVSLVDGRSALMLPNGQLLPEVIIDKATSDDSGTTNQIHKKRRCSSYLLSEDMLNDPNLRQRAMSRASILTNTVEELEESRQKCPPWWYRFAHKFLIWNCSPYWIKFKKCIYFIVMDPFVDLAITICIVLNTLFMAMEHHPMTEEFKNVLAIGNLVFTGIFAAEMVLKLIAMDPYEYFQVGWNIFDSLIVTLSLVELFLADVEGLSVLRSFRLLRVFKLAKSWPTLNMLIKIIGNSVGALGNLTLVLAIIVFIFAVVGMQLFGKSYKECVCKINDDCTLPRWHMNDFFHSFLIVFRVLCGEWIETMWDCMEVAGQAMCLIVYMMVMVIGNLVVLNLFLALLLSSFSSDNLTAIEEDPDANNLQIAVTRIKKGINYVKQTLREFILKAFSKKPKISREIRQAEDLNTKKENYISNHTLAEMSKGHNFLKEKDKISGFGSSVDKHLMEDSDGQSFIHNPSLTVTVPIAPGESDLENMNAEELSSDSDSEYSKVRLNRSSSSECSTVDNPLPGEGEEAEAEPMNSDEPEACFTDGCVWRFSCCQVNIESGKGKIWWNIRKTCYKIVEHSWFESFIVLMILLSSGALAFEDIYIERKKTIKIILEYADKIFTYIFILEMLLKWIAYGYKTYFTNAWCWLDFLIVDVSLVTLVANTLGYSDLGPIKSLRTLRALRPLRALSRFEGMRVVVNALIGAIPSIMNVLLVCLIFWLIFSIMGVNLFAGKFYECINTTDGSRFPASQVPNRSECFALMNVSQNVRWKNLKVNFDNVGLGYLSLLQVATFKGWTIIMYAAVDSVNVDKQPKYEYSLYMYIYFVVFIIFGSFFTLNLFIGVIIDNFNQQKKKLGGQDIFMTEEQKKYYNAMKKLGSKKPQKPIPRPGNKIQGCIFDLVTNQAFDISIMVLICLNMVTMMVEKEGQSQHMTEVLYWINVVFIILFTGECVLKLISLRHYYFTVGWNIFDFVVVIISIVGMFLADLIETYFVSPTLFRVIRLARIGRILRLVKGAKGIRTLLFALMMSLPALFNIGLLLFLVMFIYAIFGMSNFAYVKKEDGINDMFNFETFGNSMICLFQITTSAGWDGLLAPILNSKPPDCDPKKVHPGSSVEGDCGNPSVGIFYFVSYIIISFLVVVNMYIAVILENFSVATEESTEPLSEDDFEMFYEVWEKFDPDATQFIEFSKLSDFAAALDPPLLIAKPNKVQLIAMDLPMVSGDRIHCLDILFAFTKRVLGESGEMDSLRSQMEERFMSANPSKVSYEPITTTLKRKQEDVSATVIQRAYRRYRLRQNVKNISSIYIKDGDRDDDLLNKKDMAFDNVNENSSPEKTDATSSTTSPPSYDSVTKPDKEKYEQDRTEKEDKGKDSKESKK

SMILES | IC50
Cn1cc(-c2cccc3ccccc23)c2ccc(S(=O)(=O)Nc3ncns3)cc21 | 0.306 µM
Cn1cc(-c2ccc(C(F)(F)F)c(Cl)c2)c2ccc(S(=O)(=O)Nc3ncns3)cc21 | 3.19 µM
COc1cc(F)ccc1-c1cn(C)c2cc(S(=O)(=O)Nc3ncns3)ccc12 | 0.338 µM
COc1cc(OC)cc(-c2cn(C)c3cc(S(=O)(=O)Nc4ncns4)ccc23)c1 | 5.96 µM
Cn1cc(-c2ccc(F)c(C#N)c2)c2ccc(S(=O)(=O)Nc3ncns3)cc21 | 1.28 µM
Cn1cc(-c2ccc(C#N)c(F)c2)c2ccc(S(=O)(=O)Nc3ncns3)cc21 | 3.06 µM
Cn1cc(-c2ccc(OC(F)(F)F)cc2)c2ccc(S(=O)(=O)Nc3ncns3)cc21 | 4.67 µM
Cn1cc(-c2cccc(OC(F)(F)F)c2)c2ccc(S(=O)(=O)Nc3ncns3)cc21 | 0.87 µM
Cn1cc(-c2cccc(C#N)c2)c2ccc(S(=O)(=O)Nc3ncns3)cc21 | 2 µM
Cn1cc(-c2ccccc2)c2ccc(S(=O)(=O)Nc3ncns3)cc21 | 1.55 µM
COc1ccc(-c2cn(C)c3cc(S(=O)(=O)Nc4ncns4)ccc23)c(OC)c1 | 0.904 µM
Cn1cc(-c2cccc3ncccc23)c2ccc(S(=O)(=O)Nc3ncns3)cc21 | 0.663 µM
Cn1cc(-c2cccc(S(C)(=O)=O)c2)c2ccc(S(=O)(=O)Nc3ncns3)cc21 | 0.528 µM
COc1ccc(-c2cn(C)c3cc(S(=O)(=O)Nc4ncns4)ccc23)c2ccccc12 | 2.64 µM
COc1ccc(-c2cn(C)c3cc(S(=O)(=O)Nc4ncns4)ccc23)c(Cl)c1 | 2.31 µM
Cc1noc(C)c1-c1cn(C)c2cc(S(=O)(=O)Nc3ncns3)ccc12 | 2.62 µM
Cn1cc(-c2ccc(Br)cc2C(F)(F)F)c2ccc(S(=O)(=O)Nc3ncns3)cc21 | 3.53 µM
Cn1cc(-c2ccccc2C(F)(F)F)c2ccc(S(=O)(=O)Nc3ncns3)cc21 | 6 µM
Cc1cnc(N)c(-c2cn(C)c3cc(S(=O)(=O)Nc4ncns4)ccc23)c1 | 5.95 µM
Cc1cc(C#N)ccc1-c1cn(C)c2cc(S(=O)(=O)Nc3ncns3)ccc12 | 2.35 µM
CN(C)c1cccc(-c2cn(C)c3cc(S(=O)(=O)Nc4ncns4)ccc23)c1 | 4.2 µM
Cn1cc(-c2cccc(C(F)(F)F)c2)c2ccc(S(=O)(=O)Nc3ncns3)cc21 | 3.81 µM
COc1ccc(-c2cn(C)c3cc(S(=O)(=O)Nc4ncns4)ccc23)cc1C(F)(F)F | 4.48 µM
Cn1nccc1-c1cn(C)c2cc(S(=O)(=O)Nc3ncns3)ccc12 | 7.14 µM
